Data published in patent publication US8435544B2, “Ophthalmic compositions comprising calcineurin inhibitors or mTOR inhibitors” (Lux Biosciences, Inc., priority 2007, dated 2013).

Columns and labels:
[1] = tested on: canine keratoconjunctivitis sicca (KCS); assay: Topical voclosporin clinical study in dogs with KCS; assay type: in vivo
Excerpt: The study covered assessment of tear production (as measured by the Schirmer Tear Test (STT)), the response of clinical observation of the cornea, and participating ophthalmologists' overall assessment of efficacy.
Dogs diagnosed with chronic (>3 months in duration) immune-mediated KCS were selected from the clinic populations of the North Carolina State Veterinary Teaching Hospital. Diagnosis of immune-mediated KCS was made by exclusion of other causes of KCS.
Physical and ophthalmic examinations were performed at 0, 7, 14, and 28 days.

[2] = Ocular distribution and pharmacokinetics of 14C-voclosporin in NZW rabbits; assay type: in vivo, New Zealand White (NZW) rabbits; conditions: for AUC / Cmax: bilateral ocular; for Cmax: Blood
Description: (§1) NZW rabbits (30 females/8 males) were used in a single dose (SD) and 7-day repeat dose (RD) study (see Table 38). DB rabbits (16 females) were used in a single dose study (see Table 39). […] Blood and ocular tissue radioactivity levels were assessed at designated time points via combustion followed by liquid scintillation counting.
(§2) At each sampling point, a t-test was used to compare the tissue concentrations within or between the two strains of rabbits. SigmaStat® 3.5 (Systat, Inc., San Jose, Calif.) was used for the statistical analyses (p<0.05). […] Pharmacokinetic analysis was performed using WinNonlin 5.2 (Pharsight, Corporation, Mountain View, Calif.). Cmax and Tmax, and where calculable AUC and t1/2, were reported.

[3] = Ocular distribution and pharmacokinetics of 14C-voclosporin in DB rabbits; assay type: in vivo, Dutch Belted (DB) rabbits
Description: as §1, §2

[4] = topical mixed micellar composition

C=C/C=C/C[C@@H](C)[C@@H](O)[C@H]1C(=O)N[C@@H](CC)C(=O)N(C)CC(=O)N(C)[C@@H](CC(C)C)C(=O)N[C@@H](C(C)C)C(=O)N(C)[C@@H](CC(C)C)C(=O)N[C@@H](C)C(=O)N[C@H](C)C(=O)N(C)[C@@H](CC(C)C)C(=O)N(C)[C@@H](CC(C)C)C(=O)N(C)[C@@H](C(C)C)C(=O)N1C [voclosporin, reference compound]
adverse effects ([1]; 30 days treatment period, 0.2 wt % voclosporin topically every 12 hours): No adverse effects were noted | maintenance of STT ([1]; dogs with KCS, 30 days): maintained the STT in these dogs for 30 days | tissue accumulation ([2]; after multiple dosing): minimal tissue accumulation | tissue levels at 24 hours ([2]; single (1 day) topical dose, female NZW rabbits): Therapeutic levels of voclosporin were noticed even at the 24-hour mark | level in the choriod/retina [2, 4]: high levels | level in the vitreous humor [2, 4]: low levels

C=CC=CCC(C)C(O)C1C(=O)NC(CC)C(=O)N(C)CC(=O)N(C)C(CC(C)C)C(=O)NC(C(C)C)C(=O)N(C)C(CC(C)C)C(=O)NC(C)C(=O)NC(C)C(=O)N(C)C(CC(C)C)C(=O)N(C)C(CC(C)C)C(=O)N(C)C(C(C)C)C(=O)N1C (stereo not drawn) [^14C-voclosporin]
AUC ([3]; Aqueous Humor, single dose, bilateral ocular, female DB rabbits): 56 hr * ng eq./g | Cmax ([3]; Blood, single dose, bilateral ocular, female DB rabbits): BQL (Below Quantifiable Limit (<0.1 ng/mL)) | AUC ([3]; Choroid/Retina, single dose, bilateral ocular, female DB rabbits): 92 hr * ng eq./g | AUC ([3]; Cornea, single dose, bilateral ocular, female DB rabbits): 27844 hr * ng eq./g | AUC ([3]; Iris/Ciliary Body, single dose, bilateral ocular, female DB rabbits): 541 hr * ng eq./g | AUC ([3]; Lacrimal Gland, single dose, bilateral ocular, female DB rabbits): 335 hr * ng eq./g | AUC ([3]; Lens, single dose, bilateral ocular, female DB rabbits): 26 hr * ng eq./g | AUC ([3]; Lower Bulbar Conjunctiva, single dose, bilateral ocular, female DB rabbits): 13107 hr * ng eq./g | AUC ([3]; Lower Eyelid, single dose, bilateral ocular, female DB rabbits): 512473 hr * ng eq./g | AUC ([3]; Nictitating Membrane, single dose, bilateral ocular, female DB rabbits): 13091 hr * ng eq./g | AUC ([3]; Optic Nerve, single dose, bilateral ocular, female DB rabbits): 1127 hr * ng eq./g | AUC ([3]; Sclera, single dose, bilateral ocular, female DB rabbits): 3502 hr * ng eq./g | AUC ([3]; Submandibular Lymph Node, single dose, bilateral ocular, female DB rabbits): 635 hr * ng eq./g | AUC ([3]; Tear, single dose, bilateral ocular, female DB rabbits): 262299 hr * ng eq./g | AUC ([3]; Upper Bulbar Conjunctiva, single dose, bilateral ocular, female DB rabbits): 14296 hr * ng eq./g | AUC ([3]; Upper Eyelid, single dose, bilateral ocular, female DB rabbits): 68063 hr * ng eq./g | AUC ([3]; Vitreous Humor, single dose, bilateral ocular, female DB rabbits): 16 hr * ng eq./g | ocular tissue concentrations (e.g., Cmax) versus NZW rabbits (melanin binding) ([3]; single dose to DB rabbits): not significantly different from NZW rabbits | mortality, morbidity, clinical irritation ([2]; 35 μL of 0.2% 14C-voclosporin mixed micellar formulation, single or daily for 7 days, NZW and DB rabbits): No mortality, morbidity or evidence of clinical irritation | AUC ([2]; Aqueous Humor, repeat dose (RD, QD for 7 days), female NZW rabbits): 96 hr * ng eq./g | AUC ([2]; Aqueous Humor, single dose (SD), female NZW rabbits): 45 hr * ng eq./g | Cmax ([2]; repeat dose (RD, QD for 7 days), female NZW rabbits): BQL (Below Quantifiable Limit (<0.1 ng/mL)) | Cmax ([2]; single dose (SD), female NZW rabbits): BQL (Below Quantifiable Limit (<0.1 ng/mL)) | AUC ([2]; Choroid/Retina, repeat dose (RD, QD for 7 days), female NZW rabbits): 897 hr * ng eq./g | AUC ([2]; Choroid/Retina, single dose (SD), female NZW rabbits): 472 hr * ng eq./g | AUC ([2]; Cornea, repeat dose (RD, QD for 7 days), female NZW rabbits): 54624 hr * ng eq./g | AUC ([2]; Cornea, single dose (SD), female NZW rabbits): 23166 hr * ng eq./g | AUC ([2]; Iris/Ciliary Body, repeat dose (RD, QD for 7 days), female NZW rabbits): 1952 hr * ng eq./g | AUC ([2]; Iris/Ciliary Body, single dose (SD), female NZW rabbits): 382 hr * ng eq./g | AUC ([2]; Lacrimal Gland, repeat dose (RD, QD for 7 days), female NZW rabbits): 1109 hr * ng eq./g | AUC ([2]; Lacrimal Gland, single dose (SD), female NZW rabbits): 416 hr * ng eq./g | AUC ([2]; Lens, repeat dose (RD, QD for 7 days), female NZW rabbits): 356 hr * ng eq./g | AUC ([2]; Lens, single dose (SD), female NZW rabbits): 47 hr * ng eq./g | AUC ([2]; Lower Bulbar Conjunctiva, repeat dose (RD, QD for 7 days), female NZW rabbits): 16585 hr * ng eq./g | AUC ([2]; Lower Bulbar Conjunctiva, single dose (SD), female NZW rabbits): 12029 hr * ng eq./g | AUC ([2]; Lower Eyelid, repeat dose (RD, QD for 7 days), female NZW rabbits): 358791 hr * ng eq./g | AUC ([2]; Lower Eyelid, single dose (SD), female NZW rabbits): 207630 hr * ng eq./g | AUC ([2]; Nictitating Membrane, repeat dose (RD, QD for 7 days), female NZW rabbits): 15964 hr * ng eq./g | AUC ([2]; Nictitating Membrane, single dose (SD), female NZW rabbits): 12135 hr * ng eq./g | AUC ([2]; Optic Nerve, repeat dose (RD, QD for 7 days), female NZW rabbits): 1805 hr * ng eq./g | AUC ([2]; Optic Nerve, single dose (SD), female NZW rabbits): 569 hr * ng eq./g | AUC ([2]; Sclera, repeat dose (RD, QD for 7 days), female NZW rabbits): 3825 hr * ng eq./g | AUC ([2]; Sclera, single dose (SD), female NZW rabbits): 2646 hr * ng eq./g | AUC ([2]; Submandibular Lymph Node, repeat dose (RD, QD for 7 days), female NZW rabbits): 1190 hr * ng eq./g | AUC ([2]; Submandibular Lymph Node, single dose (SD), female NZW rabbits): 893 hr * ng eq./g | AUC ([2]; Tear, repeat dose (RD, QD for 7 days), female NZW rabbits): 230878 hr * ng eq./g | AUC ([2]; Tear, single dose (SD), female NZW rabbits): 168259 hr * ng eq./g | AUC ([2]; Upper Bulbar Conjunctiva, repeat dose (RD, QD for 7 days), female NZW rabbits): 19944 hr * ng eq./g | AUC ([2]; Upper Bulbar Conjunctiva, single dose (SD), female NZW rabbits): 14782 hr * ng eq./g | AUC ([2]; Upper Eyelid, repeat dose (RD, QD for 7 days), female NZW rabbits): 98656 hr * ng eq./g | AUC ([2]; Upper Eyelid, single dose (SD), female NZW rabbits): 114651 hr * ng eq./g | AUC ([2]; Vitreous Humor, repeat dose (RD, QD for 7 days), female NZW rabbits): 23 hr * ng eq./g | AUC ([2]; Vitreous Humor, single dose (SD), female NZW rabbits): 27 hr * ng eq./g | concentrations in remaining ocular tissues ([2]; after a single dose): 20-223 ng eq/g tissue | lowest concentrations of radioactivity in ocular tissues ([2]; after a single dose, aqueous and vitreous humor, and the lens): 1-11 ng eq/g tissue | highest concentrations of radioactivity in ocular tissues ([2]; after a single dose, eyelids, conjunctiva, cornea, nictitating membrane and tears): > 1 mg eq/g tissue | Blood levels ([2]; after ocular application): at the lower limit of quantification (LLOQ) | concentrations of radioactivity in all ocular tissues except lens, aqueous humor, vitreous humor ([2]; after single and repeat ocular applications): ≥ 10 ng eq/g tissue | blood radioactivity ([2]; all but one blood sample below LLOQ): < 3.06 ng eq/mL | concentrations in target tissues (conjunctiva, cornea, lacrimal gland) at 24 hours ([2]; once daily ocular applications for 7 days): remained at therapeutic levels even at the 24-hour mark | change in t1/2 on repeat dosing ([2]; repeat dosing up to 7 days, lower bulbar conjunctiva, nictitating membrane, upper bulbar conjunctiva): no apparent change | levels in all ocular tissues except aqueous/vitreous humor and lens ([2]; single dose administration): higher than 10 ng equivalent drug/gram tissue | distribution to the contralateral, non-treated eye ([2]; unilateral dosing): minimal distribution
